In one data set the target is T1, human PDE5 (Homo sapiens, UniProt O76074).
T1 construct: from tissue; host or cells: human platelets from fresh donor blood (10,000 g supernatant of sonified platelets)
Kind of data set: Inhibition of PDE5 activity (modified SPA test, human platelet lysate). Format: biochemical. Particulars: PDE5-containing human platelet lysate, 0.5 μM cGMP substrate, 37° C. In short, it runs like this: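 Human platelet lysate (10,000 g supernatant) as PDE5 source; SPA with 0.5 μM cGMP plus [3H]cGMP tracer, 20 mM Tris pH 7.4, 5 mM Mg2+, 1 μM motapizone and 10 nM BAY-60-7550; 5 min preincubation at 37° C., 15 min reaction, stopped with SPA beads containing IBMX. IC50 by non-linear regression.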

Each structure is given as a SMILES string.

In the case of `CCC(=O)Nc1ccc(Cc2nc3c(c4c2[nH]c2ccccc24)C(O)CC(C)(C)C3)cc1` (stereo not shown) [Example 60, N-[4-(1-Hydroxy-3,3-dimethyl-2,3,4,7-tetrahydro-1H-indolo[2,3-c]quinolin-6-ylmethyl)-phenyl]-propionamide], the melting point lay in the range of 165 to 168 °C. At human PDE5, this compound had an IC50 of 70.8 nM.
In the same order, the values of `CC1(C)Cc2nc(Cc3cccc(F)c3)c3[nH]c4ccccc4c3c2[C@@H](O)C1` [Example 93, (S)-6-(3-Fluoro-benzyl)-3,3-dimethyl-2,3,4,7-tetrahydro-1H-indolo[2,3-c]quinolin-1-ol] are 123 to 126 °C and 3.89 nM.
In the same order, the values of `CC1(C)Cc2nc(Cc3ccc(O)cc3)c3[nH]c4ccccc4c3c2C(O)C1` (stereo not shown) [Example 51, 6-(4-Hydroxy-benzyl)-3,3-dimethyl-2,3,4,7-tetrahydro-1H-indolo[2,3-c]quinolin-1-ol] are 212 °C and 5.5 nM.
Compound `O=C1CCCc2nc(Cc3ccc4c(c3)OCO4)c3[nH]c4ccccc4c3c21` [Example 18, 6-Benzo[1,3]dioxol-5-ylmethyl-2,3,4,7-tetrahydro-indolo[2,3-c]quinolin-1-one] yielded a melting point of 194 to 197 °C. At human PDE5, this compound gave a half-inhibitory concentration (IC50) of 3.63 nM.
In the same order, the values of `OC1CCCc2nc(Cc3ccccc3)c3[nH]c4ccccc4c3c21` (stereo not shown) [Example 49, 6-Benzyl-2,3,4,7-tetrahydro-1H-indolo[2,3-c]quinolin-1-ol] are 211 °C and 66.1 nM.
For `CC1(C)CC(=O)c2c(nc(Cc3ccc(F)c(F)c3)c3[nH]c4ccccc4c23)C1` [Example 24, 6-(3,4-Difluoro-benzyl)-3,3-dimethyl-2,3,4,7-tetrahydro-indolo[2,3-c]quinolin-1-one] the same measures were 204 to 207 °C and 14.1 nM.
As for `COc1c(F)cc(Cc2nc3c(c4c2[nH]c2ccccc24)C(=O)CC(C)(C)C3)cc1F` [Example 32, 6-(3,5-Difluoro-4-methoxy-benzyl)-3,3-dimethyl-2,3,4,7-tetrahydro-indolo[2,3-c]quinolin-1-one], the melting point was in the range of 195 to 196 °C. In addition, on human PDE5, the IC50 was 0.191 nM.
For `CC1(C)CC(=O)c2c(nc(Cc3ccc(OC(F)(F)F)cc3)c3[nH]c4ccccc4c23)C1` [Example 11, 3,3-Dimethyl-6-(4-trifluoromethoxy-benzyl)-2,3,4,7-tetrahydro-indolo[2,3-c]quinolin-1-one] the same measures were 141 to 143 °C and 135 nM.
For `CC1(C)Cc2nc(Cc3ccc(N)cc3)c3[nH]c4ccccc4c3c2C(O)C1` (stereo not shown) [Example 54, 6-(4-Amino-benzyl)-3,3-dimethyl-2,3,4,7-tetrahydro-1H-indolo[2,3-c]quinolin-1-ol] the same measures were 206 to 208 °C and 26.9 nM.
For `CC1(C)Cc2nc(Cc3ccc(OC(F)(F)F)cc3)c3[nH]c4ccccc4c3c2C(O)C1` (stereo not shown) [Example 53, 3,3-Dimethyl-6-(4-trifluoromethoxy-benzyl)-2,3,4,7-tetrahydro-1H-indolo[2,3-c]quinolin-1-ol] the same measures were 117 to 119 °C and 89.1 nM.
`CC1(C)CC(=O)c2c(nc(Cc3cccc(N)c3)c3[nH]c4ccccc4c23)C1` [Example 41, 6-(3-Amino-benzyl)-3,3-dimethyl-2,3,4,7-tetrahydro-indolo[2,3-c]quinolin-1-one] gave a melting point of 232 to 234 °C. Further, the IC50 at human PDE5 is 5.13 nM.
In the same order, the values of `COc1ccc(Cc2nc3c(c4c2[nH]c2ccccc24)C(O)CC(C)(C)C3)cc1` (stereo not shown) [Example 47, 6-(4-Methoxy-benzyl)-3,3-dimethyl-2,3,4,7-tetrahydro-1H-indolo[2,3-c]quinolin-1-ol] are 146 °C and 5.37 nM.
For `CC1(C)CC(=O)c2c(nc(Cc3cccc(Cl)c3)c3[nH]c4ccccc4c23)C1` [Example 35, 6-(3-Chloro-benzyl)-3,3-dimethyl-2,3,4,7-tetrahydro-indolo[2,3-c]quinolin-1-one] the same measures were 206 to 209 °C and 37.2 nM.
For `COc1ccc(Cc2nc3c(c4c2[nH]c2ccccc24)CCC(C)(C)C3)cc1` [Example 77, 6-(4-Methoxy-benzyl)-3,3-dimethyl-2,3,4,7-tetrahydro-1H-indolo[2,3-c]quinoline] the same measures were 158 °C and 6.31 nM.
On to `COc1ccc(Cc2nc3c(c4c2[nH]c2ccccc24)C(=O)CC(C)C3)cc1` (stereo not shown) [Example 17, 6-(4-Methoxy-benzyl)-3-methyl-2,3,4,7-tetrahydro-indolo[2,3-c]quinolin-1-one], for which the melting point came out at 102 °C. This compound showed an IC50 on human PDE5 of 3.16 nM.
For `COc1ccc(Cc2nc3c(c4c2[nH]c2ccccc24)C(=O)CCC3)cc1` [Example 2, 6-(4-Methoxy-benzyl)-2,3,4,7-tetrahydro-indolo[2,3-c]quinolin-1-one] the same measures were 177 °C and 6.31 nM.
The compound `CC1(C)CC(=O)c2c(nc(Cc3ccc(F)cc3)c3[nH]c4ccccc4c23)C1` [Example 28, 6-(4-Fluoro-benzyl)-3,3-dimethyl-2,3,4,7-tetrahydro-indolo[2,3-c]quinolin-1-one] registered a melting point of 200 to 204 °C. In addition, the IC50 against human PDE5 was 18.2 nM.
